According to patent US20170368052A1, “CRYSTAL FORMS OF APOMORPHINE AND USES THEREOF” (NeuroDerm, Ltd., priority 2014, published 2017):

How the values were obtained:
Type in all cases: physicochemical
[1] = Equilibrium desiccator analysis at 75-80% RH; conditions: 75 to 80% RH at 18-23° C., after 1 h
[2] = Stability of the reaction mixture at reflux in IPA with/without ascorbic acid-6-palmitate (HPLC); conditions: solution at reflux with ascorbic acid-6-palmitate
Procedure: In this case, the base was added under reflux and the procedure compared with and without ascorbic acid-6-palmitate as an antioxidant (Table 7).

[3] = Process hold-point stability (purity profile)
Procedure: An optimized non-aqueous procedure is provided below and shown in Scheme 4. • 1. Add apomorphine hydrochloride (1.0 wt), ascorbic acid-6-palmitate (0.01 wt), IPA (30 vol) and stir at 18-23° C. • 2. Vacuum/nitrogen purge the vessel 3× at 18-23° C. and place under a flow of nitrogen. • 3. Heat the slurry to 60-65° C. • 4. Add 3-amino-1-propanol (1.1 eq, 0.25 vol) maintaining 60-70° C. (target 60-65° C.). • 5. As required, cool the reaction mixture to 60-65° C. […] Stir for 15-20 minutes and check for full dissolution. • 7. On full dissolution, clarify the reaction mixture through a ≦1 μm filter and line rinse with IPA (3 vol) at 60-65° C. (Note: the reaction solution is highly unstable to air while hot, therefore total exclusion of air is required.) • 8. Concentrate the reaction mixture under reduced pressure to approximately 10 vol maintaining 55-65° C. • 9. […] Cool the slurry to 68-71° C. and age for 1 h (crystallization is expected during the cool down period approximately 72° C.). • 11. Slow the stirring for the remainder of the preparation to the minimum effective rate and check for crystallization: if crystallization has not occurred, seed the reaction with 0.1 wt % of seeds and age for 1 h. • 12. Cool the slurry to 18-23° C. over 5-6 h at an approximately constant rate. • 13. Age the slurry at 18-23° C. for 2-16 h. • 14. […]

## CN1CCc2cccc3c2[C@H]1Cc1ccc(O)c(O)c1-3 [A0505-110-D1, apomorphine free base]
[1]
  Weight increase: 2.0 % w/w

## CN1CCc2cccc3c2C1Cc1ccc(O)c(O)c1-3 (stereo not shown) [A0513-98-01]
[2]
  % area: RRT 1.00: 99.83 % area
  % area: RRT 1.25: 0.04 % area
  % area: RRT 1.71: 0.06 % area
  % area: RRT 1.76: 0.04 % area
[3]; reaction mixture held 2 h at reflux (83° C.)
  Change in purity profile: no significant change

## CC(C)O.CN1CCc2cccc3c2C1Cc1ccc(O)c(O)c1-3 (stereo not shown) [A0513-126, apomorphine free base IPA solvate]
[3]; distillation over 6 h at 60-65° C.
  Change in purity profile of the material isolated: no significant change
